Data taken from patent US11512087B2, “BRK inhibitory compound” (priority 2015, dated 2022).

Key:
Lck = Lck (Homo sapiens (Human), UniProt P06239); assay: Lck inhibitory activity (Z'-LYTE Kinase Assay Kit-Tyr 2 Peptide, FRET); type: biochemical
Experimental: The Lck activity was determined by using Fluorescence Resonance Energy Transfer (FRET) method.
A dilute solution (5 μL) of the compound of the present invention in dimethylsulfoxide (DMSO; Sigma-Aldrich Co. LLC) was added to a 96-well assay plate. In addition, Peptide/Kinase Buffer composed of DL-dithiothreitol (DTT; 2 mM), Tyr 2 Peptide (2 μM), Kinase Buffer and Lck was added to the assay plate, and the reaction solution was preincubated at 25° C. for 20 minutes. […] After incubation, Coloring Solution A (10 μL) composed of Coloring Reagent B and Coloring Buffer was added, and the reaction solution was incubated at 25° C. for 1 hour. Stop Reagent (10 μL) was added to each well such that the enzymatic reaction stopped. The fluorescent coloring of each well was measured on a fluorescent plate reader by using wavelengths of 445 nm and 520 nm. The ratio of phosphorylation was determined by a ratio of coloring at 445 nm to that at 520 nm according to the attached manual.
The inhibition rate (%) of the compound of the present invention was calculated according to the following Numerical Formula 2. Inhibition rate (%)={1−(AX−AB)/(AC−AB)}×100 [Numerical Formula 2]
AX: Ratio of phosphorylation at addition of the compound of the present invention
AB: Ratio of phosphorylation in blank
AC: Ratio of phosphorylation at addition of only DMSO

Syk kinase = Syk kinase (Homo sapiens (Human), UniProt P43405); assay: Syk inhibitory activity (mobility shift, QuickScout Screening Assist MSA); type: biochemical; conditions: read-out: Syk inhibitory activity (Inhibition rate at 1 μM of compound)
Experimental: The compound of the present invention was dissolved in DMSO to prepare a solution with a concentration of 100 times the test concentration of 1 μmol/L. The solution was further diluted 25-fold with Assay Buffer (20 mmol/L HEPES, 0.01% Triton X-100, 2 mmol/L DTT, pH 7.5) to give a test substance solution. With regard to a positive control substance (Staurosporine), a solution of the positive control substance was prepared in a similar manner.
Five microliters of a test substance solution with a concentration of four times prepared by using Assay Buffer, 5 μL of a solution of a substrate (Blk/Lyntide)/ATP/a metal (Mg) with a concentration of four times and 10 μL of a solution of Syk kinase with a concentration of two times were mixed in a well of a 384-well plate made of polypropylene, and the mixture was subjected to a reaction at room temperature for 1 hour (the final concentration of the substrate was 1,000 nmol/L, and the final concentration of ATP was 26 μmol/L). To the mixture, 60 μL of Termination Buffer (QuickScout Screening Assist MSA; Carna Biosciences, Inc.) was added to stop the reaction. The substrate peptide and the phosphorylated peptide in the reaction solution were separated, and were quantified. The kinase reaction was evaluated by a product ratio (P/(P+S)) calculated from a peak height (S) of the substrate peptide and a peak height (P) of the phosphorylated peptide.

Sequence of Lck (P06239 whole entry, species assumed): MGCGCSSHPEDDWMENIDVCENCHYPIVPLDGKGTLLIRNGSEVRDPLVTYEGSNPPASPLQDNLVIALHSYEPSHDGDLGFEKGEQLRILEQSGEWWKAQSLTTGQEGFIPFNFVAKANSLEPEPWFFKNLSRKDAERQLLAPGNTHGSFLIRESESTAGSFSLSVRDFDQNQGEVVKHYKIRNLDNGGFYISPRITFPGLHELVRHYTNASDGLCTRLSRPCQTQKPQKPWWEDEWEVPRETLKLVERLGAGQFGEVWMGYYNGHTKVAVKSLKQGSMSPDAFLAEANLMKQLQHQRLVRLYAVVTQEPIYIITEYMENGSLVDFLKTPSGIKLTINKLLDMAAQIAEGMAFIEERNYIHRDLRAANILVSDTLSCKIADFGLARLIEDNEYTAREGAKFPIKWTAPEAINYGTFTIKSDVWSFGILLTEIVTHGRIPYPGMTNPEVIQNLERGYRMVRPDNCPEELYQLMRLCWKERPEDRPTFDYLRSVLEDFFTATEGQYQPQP

IC50 (Lck) [µM]	inhibition at 1 µM (Syk kinase) [%]	Compound
> 10	0	CC(C)n1cc(-c2ccc(C#N)c3[nH]ncc23)c2c(N)nc(Nc3ccc(S(C)(=O)=O)cc3F)nc21 [Example 13-1, 4-(4-Amino-2-{[2-fluoro-4-(methylsulfonyl)phenyl]amino}-7-isopropyl-7H-pyrrolo[2,3-d]pyrimidin-5-yl)-1H-indazole-7-carbonitrile]
2.5	0	CC(C)n1nc(-c2ccc(F)c3[nH]ncc23)c2c(N)nc(Nc3ccc(S(C)(=O)=O)cc3F)nc21 [Example 4-3, 3-(7-Fluoro-1H-indazol-4-yl)-N^6-[2-fluoro-4-(methylsulfonyl)phenyl]-1-isopropyl-1H-pyrazolo[3,4-d]pyrimidine-4,6-diamine]
> 10	0	Cc1nn(C)cc1Nc1nc(N)c2c(-c3ccc4[nH]ccc4c3)nn(C(C)C)c2n1 [Example 1, N^6-(1,3-dimethyl-1H-pyrazol-4-yl)-3-(1H-indol-5-yl)-1-isopropyl-1H-pyrazolo[3,4-d]pyrimidine-4,6-diamine]
